Test results reported in patent US5648381A, “Derivatives of indan-1,3-dione and indan-1,2,3-trione, methods of preparing them and therapeutic use thereof” (Innothera, priority 1992, dated 1997).
pEC50: −log10 of the molar value. Blank lines part the entries; values can stand above or below the compound they belong to.

Legend:
[1] = Free radical trapping (DPPH) effect; conditions: in vitro, DPPH model
Text: (§1) In the in vitro test, the compounds were solubilised in aqueous solution, either pure or containing DMSO or alcohol.
The overall "free radical trapping" effect was studied in vitro in a model using 1,1-diphenyl-2-picrylhydrazyl (DPPH) as stable free radical, the method being derived from that described by Lamaison et al., Plantes Medic. et phytotheraphie, XXII, 1988, 231-234.

saphena veins of rabbits = experiment: Contraction of isolated saphena veins produced by depolarisation (KCl, hyperpotassic solution); conditions: KCl 40 mM, compound 10 nM to 30 μM, rabbit; for pEC50: Oryctolagus cuniculus, read-out: ED50 for increase in contractions of the saphena veins produced by KCl
Protocol: as §1
The contractile effect was measured in vitro:
by the contractile force exerted by vascular rings, either quiescent or stimulated (electrically or by physiological agents) and maintained under isometric conditions, and
The formula (A) compounds and their salts, if any, increase the contraction of animal saphena veins produced by noradrenalin and depolarisation (hyperpotassic solution) without in most cases affecting the arterial contractile responses. For example, 2-hydroxy-2-(2-methoxybenzoyl hydrazino)-indan-1,3-dione and the compound in Example 22 (10 nM to 30 μM) produce a more than 50% increase (ED50 ±0.3 microM) in contractions of the saphena veins of rabbits produced by KCl (40 mM).

[2] = tested on: oedema and leucocyte migration in the pleural cavity; experiment: Carrageenin-induced pleurisy in the rat; type: in vivo; conditions: intraperitoneally twice 20 mg/kg, six hours after carrageenin
Protocol: (§2) In the in vivo test, the products were administered intravenously in the form of a pure aqueous solution or intraperitoneally in the form of an aqueous solution optionally containing DMSO or orally in solution or in suspension in carboxymethyl cellulose or in a composite aqueous solution containing Tween® and DMSO in certain cases.
The compounds in Examples 1, 3 and 11 and 2-hydroxy-2-(3-methoxybenzoyl hydrazino)-indan-1,3-dione reduce vascular permeability by 10 to 50% when measured one to two hours after intraperitoneal administration of 5-20 mg/kg and 2 to 4 hours after oral administration of 5-20 mg/kg to the rat. The compound in Example 9 and 2-isonicotinoyl hydrazonoindan-1,3-dione, administered intraperitoneally twice in doses of 20 mg/kg, inhibit oedema and leucocyte migration in the pleural cavity, six hours after injection of carrageenin in the model of pleurisy in the rat.

[3] = Toxicity, single oral administration to the mouse; type: in vivo; conditions: 1 g/kg
Text: The formula (A) compounds and their salts if any have very low toxicity.

[4] = tested on: basic venous tone of the rat; experiment: Basic venous tone and arterial pressure in vivo (normal and after cardiac arrest); conditions: 1 to 3 picomols intravenously
Protocol: as §2
In vivo, the arterial and venous pressure was measured under normal conditions and after cardiac arrest. During cardiac arrest, the venous tone was calculated from the venous and arterial pressure measured at equilibrium and corrected in dependence on the relative differences in compliance between these two networks (Samar and Coleman, Am. J. Physiol., 1978, 234:H94-100; Yamamoto et al., Am. J. Physiol., 1980, 238:H823-828).

Structure (SMILES): COc1ccc2c(=O)c(=NNc3cccc(F)c3)c(=O)c2c1 [2-(3-fluorophenyl hydrazono)-5-methoxyindan-1,3-dione]
maximum anti-radical effect [1]: more than 95%

pEC50 (saphena veins of rabbits): ~6.52
Structure (SMILES): COc1ccccc1C(=O)NNC1(O)C(=O)c2ccccc2C1=O [2-hydroxy-2-(2-methoxybenzoyl hydrazino)-indan-1,3-dione]
increase in contractions of the saphena veins produced by KCl (saphena veins of rabbits): more than 50%

Structure (SMILES): O=C(NN=c1c(=O)c2ccccc2c1=O)c1ccncc1 [2-isonicotinoyl hydrazonoindan-1,3-dione]
inhibition of leucocyte migration in the pleural cavity [2]: inhibit
inhibition of oedema [2]: inhibit

Structure (SMILES): O=c1c(=NNc2ccccc2)c(=O)c2ccccc12 [2-phenyl hydrazonoindan-1,3-dione]
deaths [3]: no deaths
observed effects ([3]; in certain cases): coloured diarrhoea and coloured urine

Structure (SMILES): O=C(NNC1(O)C(=O)c2ccccc2C1=O)c1ccccc1 [Example 3, 2-benzoyl hydrazino-2-hydroxy-indan-1,3-dione]
increase in the basic venous tone [4]: more than 20%

Structure (SMILES): Cc1ccccc1C(=O)NNC1(O)C(=O)c2ccccc2C1=O [Example 6, 2-hydroxy-2-(2-methylbenzoylhydrazino)-indan-1,3-dione]
effect on arterial pressure [4]: without affecting the arterial pressure
increase in the basic venous tone [4]: more than 20%

Structure (SMILES): O=C(NNC1(O)C(=O)c2ccccc2C1=O)c1ccccc1O [Example 9, 2-hydroxy-2-(2-hydroxybenzoylhydrazino)-indan-1,3-dione]
inhibition of leucocyte migration in the pleural cavity [2]: inhibit
inhibition of oedema [2]: inhibit
maximum anti-radical effect [1]: more than 95%

Structure (SMILES): COc1ccc(C(=O)NNC2(O)C(=O)c3ccccc3C2=O)cc1OC [Example 11, 2-(3,4-dimethoxybenzoylhydrazino)-2-hydroxyindan-1,3-dione]
effect on arterial pressure [4]: without affecting the arterial pressure
increase in the basic venous tone [4]: more than 20%

pEC50 (saphena veins of rabbits): ~6.52
Structure (SMILES): COC(=O)NN=c1c(=O)c2ccccc2c1=O [Example 22, 2-methoxycarbonyl hydrazonoindan-1,3-dione]
increase in contractions of the saphena veins produced by KCl (saphena veins of rabbits): more than 50%
